Data taken from publication PMC3357308 (Diabetes, 2012).

Key:
human 11βHSD1 [1] = target: T1, human 11βHSD1 (Homo sapiens, UniProt P28845); format: cell-based; details: HEK293/h11βHSD1 cells, substrate 2 μmol/L, 1–24 h, n = 6
[2] = In vivo pharmacokinetics of d2-cortisone after intravenous bolus; set-up: species or system human; details: iv bolus 141 μg
human 11βHSD1 [3] = target: T1, human 11βHSD1; test: Competition with [3H]2-cortisone in HEK293/h11βHSD1 cells; format: cell-based; details: [3H]2-cortisone 5 nmol/L, competitor 0–4,955 nmol/L, 6–24 h
[4] = system: 11β-reductase and 11β-dehydrogenase activities; test: Cortisol/cortisone interconversion in subcutaneous adipose and skeletal muscle; format: in vivo, human; details: arteriovenous difference adjusted for blood flow, n = 6; for Ra (net Ra for cortisone), skeletal muscle release: forearm
11β-dehydrogenase [5] = test: Primed 3-h d2-cortisone infusion before and after licorice; details: without licorice, whole body, steady state, n = 3
11β-dehydrogenase [6] = details: extrapolated from generation of d3-cortisone, non–steady-state, adjusted for substrate concentration and volume of distribution; cited from earlier work
[7] = system: 11β-reductase and 11β-dehydrogenase activities; test: Cortisol/cortisone interconversion in the splanchnic circulation; format: in vivo, human; details: adjusted for hepatic blood flow, n = 4
11βHSD1 = details: in vivo, d4-cortisol tracer; cited from earlier work

T1 sequence (P28845 whole entry): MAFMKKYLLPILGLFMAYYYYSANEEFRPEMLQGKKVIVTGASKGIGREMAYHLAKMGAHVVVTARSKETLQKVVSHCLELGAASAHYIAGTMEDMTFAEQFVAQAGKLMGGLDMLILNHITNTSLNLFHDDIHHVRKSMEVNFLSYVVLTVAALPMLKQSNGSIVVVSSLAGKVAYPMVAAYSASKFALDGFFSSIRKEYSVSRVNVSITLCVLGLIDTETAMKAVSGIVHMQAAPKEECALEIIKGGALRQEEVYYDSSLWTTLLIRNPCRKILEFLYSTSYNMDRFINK

production of d2-cortisol or cortisol from the substrate (human 11βHSD1 [1]) [pmol/10^5 cells/min] | time tracer could be detected after injection ([2]; blood) [h] | area under the curve ([2]; n = 3) [nmol/L per min] | Vmax for formation of [3H]2-cortisol in the presence of the steroid (human 11βHSD1 [3]) [pmol/10^5 cells/min] | Ra (net Ra for cortisone), skeletal muscle release [4] [pmol/100 mL/min] | Net Ra of cortisone (11β-dehydrogenase [5]) [nmol/min] | Ra (net Ra for cortisone), subcutaneous adipose release [4] [pmol/100 g/min] | Ra (net Ra for cortisone), splanchnic release [7] [nmol/min] | SMILES | cortisone production rate (11β-dehydrogenase [6]) [nmol/min] | cortisol released by subcutaneous adipose 11βHSD1 (11βHSD1) [pmol/100 g tissue/min]
0.17 ± 0.05 | 1.5 | 494 | 0.83 ± 0.34 |  |  |  |  | [2H]C1C(=O)C=C2CC[C@H]3[C@@H]4CC[C@](O)(C(=O)CO)[C@@]4(C)CC(=O)[C@@H]3[C@@]2(C)C1[2H] (some centres unmarked) [d2-cortisone, 1,2-[^2H]2-Cortisone] |  | 
 |  |  |  | 5.9 ± 1.8 |  |  |  | [2H]C1([2H])[C@H](O)[C@@]2([2H])[C@@H](CCC3=CC(=O)CC[C@@]32C)[C@@H]2CC[C@](O)(C(=O)CO)[C@]21C [d3-cortisol] |  | 
0.41 ± 0.15 |  |  | 0.73 ± 0.26 | 15.2 ± 5.8 | 36 | 38.7 ± 5.8 | 19.5 ± 2.8 | C[C@]12CCC(=O)C=C1CC[C@@H]1[C@@H]2C(=O)C[C@@]2(C)[C@H]1CC[C@]2(O)C(=O)CO [cortisone] | 24 | 
 |  |  |  | 19.7 ± 4.1 |  |  |  | C[C@]12CCC(=O)C=C1CC[C@@H]1[C@@H]2[C@@H](O)C[C@@]2(C)[C@H]1CC[C@]2(O)C(=O)CO [cortisol] |  | ~15
